Where “and” joins values, the source holds several entries; their conditions need not be identical. Equal values may be shown once.
Assay: Metabolite profiling and semi-quantitation (peak area-time AUC) of LW6 and its metabolites in mouse plasma after a single i.v. or oral dose of LW6
Format: in vivo, male ICR mice
Conditions: for Relative % of Parent AUC0→t (i.v.): AUC0→t relative to AUC0→t of parent after i.v. administration; for Relative % of Total Metabolite AUC0→t: relative to sum of AUC0→t of all detected metabolites; for Relative AUC of metabolite versus parent AUC (i.v.): versus AUC0→t of LW6 administered intravenously; for Relative % of Parent AUC0→t (p.o.): AUC0→t relative to AUC0→t of parent after i.v. administration (5 mg/kg); for Average AUC0→t (Peak Intensity, Cps) / Average AUC0→t (Peak inTensity, cps): mouse plasma, n = 3, 0-24 h, LC-MS/MS peak intensity-time curve; for Average AUC0→t (Peak Intensity, Cps): LW6 5 mg/kg i.v.; for Average AUC0→t (Peak inTensity, cps): LW6 5 mg/kg p.o.; for Detection of metabolite in mouse plasma: LW6 5 mg/kg i.v. or p.o., pMRM-IDA-EPI, S/N > 3
Method: To determine the in vivo metabolism of LW6, male ICR mice were administered a single intravenous (i.v., 5 mg/kg) or oral dose (p.o., 5 mg/kg) of LW6. Serial blood samples (Section 4.2) were collected and metabolite identification was performed using a pMRM-IDA-EPI scan method in negative ion mode on a QTRAP.
Animal experiments were approved by the Institutional Animal Care and Use Committee of the Korea Research Institute of Bioscience and Biotechnology (Chungbuk, Korea; KRIBB-AEC-15005, 9 January 2015) and performed in compliance with the National Institutes of Health Guidelines for the care and use of laboratory animals and Korean national laws for ethical conduct in the care and use of animals and the rules of Good Laboratory Practice. Six specific pathogen-free (SPF) male ICR mice (8 weeks, 31.5–40.1 g) were purchased from Koatech Co. (Pyeongtaek, Kyonggi, Korea) and maintained in an SPF environment at 22 ± 2 °C with a 12 h light/dark cycle and relative humidity of 50 ± 10%. Food (Teklad Global rodent diet 2018S, ENVIGO, Indianapolis, IN, USA) and water were provided ad libitum, unless noted otherwise. Animals were acclimated to the testing facility for 1 week before being used in the study. The animal group for oral dosing was fasted overnight before the study and fed again 4 h after dosing. Mice were administered a single dose of the test substance intravenously via tail vein injection (n = 3, 5 mg/kg) or orally by disposable syringe with an oral zonde (n = 3, 5 mg/kg). Dosing solutions were prepared in dimethylacetamide/Cremophor EL/20% v/v (2-hydroxypropyl)-β-cyclodextrin in de-ionized water (1/1/3 v/v/v; i.v. or p.o. for LW6) and administered at a dose volume of 5 mL/kg for both i.v. and p.o. Peng et al. method was used for serial blood sampling in mice. Briefly, blood samples (~50 µL each) were collected via the saphenous vein of free alive mice at the time points including 0, 0.25, 0.5, 0.75, 1, 2, 4, 6, 8, and 24 h after oral administration or 0, 0.083, 0.167, 0.25, 0.5, 1, 2, 4, 6, 8, and 24 h after intravenous administration. These samples were collected into Microvette® capillary tubes at predetermined time points. The blood samples were centrifuged under refrigeration at 12,000× g for 3 min and then stored frozen at −20 °C until analysis.
Plasma samples were prepared for analysis by the protein precipitation method. A simple protein precipitation is to remove proteins in plasma samples with organic solvents. Briefly, 15 µL of each plasma sample was transferred to a PCR tube (Axygen, Union City, CA, USA). Four volumes of acetonitrile containing the analytical internal standard, 4-methylumbelliferone, were added, and the resulting mixture was vortexed for 10 min on a multi-tube vortexer (VWR International, Radnor, PA, USA). The samples were sonicated for 30 min at room temperature. The tubes were centrifuged at 12,000× g for 10 min, and the supernatant was analyzed for the test substance. Sample analysis was performed with a 3200 Q TRAP LC/MS/MS system (Applied Biosystems, Foster City, CA, USA) in negative MRM mode. The analytical methods are described in the following sections.
The LC-MS/MS system consisted of an Agilent 1100 series HPLC system (Agilent Technologies, Santa Clara, CA, USA) equipped with an API 3200 QTRAP hybrid triple quadrupole-linear ion trap mass spectrometer with a Turbo V^TM ion spray. All samples were analyzed on an Acquisition mode and data were processed using Analyst® software (version 1.4.2, Applied Biosystems, Foster City, CA, USA). The sample injection volume was 10 µL, and separation was performed using an Atlantis dC18 column (50 × 2.1 mm i.d., 3 µm, Waters, Milford, MA, USA) with a SecurityGuard^TM C18 guard column (2.0 × 4.0 mm i.d., Phenomenex, Torrance, CA, USA) maintained at room temperature. […]

Row | Compound | Relative % of Parent AUC0→t (i.v.) (after LW6 5 mg/kg i.v.) | Relative % of Total Metabolite AUC0→t (after LW6 5 mg/kg i.v.) | Relative % of Total Metabolite AUC0→t (after LW6 5 mg/kg i.v., listed as APA (M7)) | Relative AUC of metabolite versus parent AUC (i.v.) (after LW6 5 mg/kg i.v.) | Relative % of Parent AUC0→t (p.o.) (after LW6 5 mg/kg p.o.) | Relative % of Total Metabolite AUC0→t (after LW6 5 mg/kg p.o.) | Relative % of Total Metabolite AUC0→t (after LW6 5 mg/kg p.o., listed as APA (M7)) | Relative AUC of metabolite versus parent AUC (i.v.) (after LW6 5 mg/kg p.o.) | Average AUC0→t (Peak Intensity, Cps) | Average AUC0→t (Peak inTensity, cps) | Relative % of Parent AUC0→t (i.v.) (after LW6 5 mg/kg i.v., 5 mg/kg) | Relative % of Parent AUC0→t (p.o.) (after LW6 5 mg/kg p.o., 5 mg/kg) | Detection of metabolite in mouse plasma
1 | O=C(O)COc1ccc(C23CC4CC(CC(C4)C2)C3)cc1 [APA, 2-(4-((3r,5r,7r)-adamantan-1-yl)phenoxy)acetic acid] | 1877.92% | 92.1% and 92% | 92.09% | approximately 19 fold | 1686.37% | 93.3% and 93% | 93.32% | ~17 fold | 19,697,150 cps | 17,688,080 cps |  |  | 
2 | COC(=O)c1ccc(O)c(NC(=O)COc2ccc(C34CC5CC(CC(C5)C3)C4)cc2)c1 [LW6] |  |  |  |  |  |  |  |  | 1,048,883 cps | 28,735 cps | 100% | 2.7% and 2.74% | 
3 | O=C(COc1ccc(C23CC4CC(CC(C4)C2)C3)cc1)Nc1cc(C(=O)O)ccc1O [M9] | 0.73% | 0.04% |  |  |  |  |  |  | 7672 cps |  |  |  | only detected in plasma samples obtained from intravenous dosing
4 | Oc1ccc(C23CC4CC(CC(C4)C2)C3)cc1 [M12] | 2.99% | 0.15% |  |  |  |  |  |  | 31,345 cps |  |  |  | only detected in plasma samples obtained from intravenous dosing
